In patent US9801961B2, “2-phenylimidazo[1,2-a]pyrimidines as imaging agents” (Hoffmann-La Roche Inc., priority 2013, dated 2017):

Each compound was assayed on native tau aggregates (assay: TAU radioligand in vitro displacement assay ([3H]T808 autoradiography on human AD brain sections)). Conditions: compound 10 nM, radioligand [3H]T808 10 nM, 50 mM Tris pH 7.4, room temperature, 30 min.
Format: binding
Protocol: TAU Radioligand-In-Vitro Displacement Assay
This in vitro binding assay assesses the affinity of compounds for native tau aggregates. The compounds are co-incubated with the well-established tau specific radioligand [^3H]T808 and the compound's displacement potency of [^3H]T808 binding is determined by in vitro autoradiography using human Alzheimer's disease (AD) brain sections (FIG. 1).
AD human brains are purchased from Banner Sun Health Research Institute (Sun City, Ariz., USA). Pathological diagnosis of AD is made according to standard NIA-Reagan Institute criteria based on neuropathological data. The radioligand [^3H]T808 was synthesized in-house ([^3H]-2-[4-(2-Fluoro-ethyl)-piperidin-1-yl]-benzo[4,5]imidazo[1,2-a]pyrimidine, radiochemical purity 99.0%). As a reference cold T808 is used (2-[4-(2-Fluoro-ethyl)-piperidin-1-yl]-benzo[4,5]imidazo[1,2-a]pyrimidine). For the autoradiography FujiFilm Imaging Plates (BAS-IP TR 2025) are exposed to the sections and read with a FujiFilm IP reader (BAS-5000).
Ten μm thick human AD brain sections are generated with a cryostat (Leica CM3050) at −17° C. chamber temperature and −15° C. object temperature. Sections are transferred to Histobond+microscope slides (Marienfeld Laboratory Glasware). After drying for 3 hours at room temperature the sections are stored at −20° C. The sections are incubated with the radioligand (10 nM) and the respective cold compound (at various concentrations) in 50 mM Tris buffer, pH 7.4 at room temperature for 30 min. After washing 3×10 min at 4° C. in 50 mM Tris buffer, pH 7.4 and 3 quick dips in H2O dist. at 4° C. the sections are dried at 4° C. for 3 h. The sections are placed in a FujiFilm Cassette (BAS 2025), exposed with an Imaging Plate for five days and afterwards scanned with a resolution of […].
The signal intensity (Dens—PSL/mm2) in the region of interest (ROI) of the autoradiogram is quantified with the software MCID analysis (version 7.0, Imaging Research Inc.). The specific binding (SB) of [^3H]T808 binding in absence or in presence of a compound is calculated by subtracting the non-specific binding signal in the white matter, thus yielding SB[3H]T808 only and SBcompund. The % displacement by the various compounds is calculated as following: % displacement=100−(SBcompund/SB[3H]T808 only)*100.
In each experiment cold T808 is used as a positive internal control. Co-incubation of equimolar amounts of hot and cold T808 is expected to reduce specific binding by approximately 50%.

Row | Structure (SMILES) | % displacement of [3H]T808 (10 nM) at 10 nM
1 | CNc1ccn2cc(-c3cccc(OCCCF)c3)nc2n1 [Example 130, 2-(3-(3-Fluoropropoxy)phenyl)-N-methylimidazo[1,2-a]pyrimidin-7-amine] | 12%
2 | FCCCOc1ccc(-c2cn3ccc(N4CCC4)nc3n2)cc1 [Example 112, 7-(Azetidin-1-yl)-2-(4-(3-fluoropropoxy)phenyl)imidazo[1,2-a]pyrimidine] | 15%
3 | Cc1cccc(-c2cn3ccc(N(C)CCOCCF)nc3n2)c1 [Example 68, N-[2-(2-Fluoroethoxy)ethyl]-N-methyl-2-(3-methylphenyl)imidazo[1,2-a]pyrimidin-7-amine] | 14%
4 | COc1cccc(-c2cn3ccc(N4CCC(F)CC4)nc3n2)c1 [Example 5, 7-(4-Fluoropiperidin-1-yl)-2-(3-methoxyphenyl)imidazo[1,2-a]pyrimidine] | 33%
5 | COc1cccc(-c2cn3ccc(N(C)C)nc3n2)c1 [Example 35, 2-(3-Methoxyphenyl)-N,N-dimethylimidazo[1,2-a]pyrimidin-7-amine] | 34%
6 | CN(C)c1ccn2cc(-c3ccc4c(c3)OCCO4)nc2n1 [Example 38, 2-(2,3-Dihydro-1,4-benzodioxin-6-yl)-N,N-dimethylimidazo[1,2-a]pyrimidin-7-amine] | 37%
7 | COc1cc(-c2cn3ccc(N4CCC4)nc3n2)ccc1C [Example 127, 7-(Azetidin-1-yl)-2-(3-methoxy-4-methylphenyl)imidazo[1,2-a]pyrimidine] | 11%
8 | COc1ccc(-c2cn3ccc(NCC(F)(F)F)nc3n2)cc1 [Example 78, 2-(4-Methoxyphenyl)-N-(2,2,2-trifluoroethyl)imidazo[1,2-a]pyrimidin-7-amine] | 8%
9 | Fc1ccc(-c2cn3ccc(N4CCC4)nc3n2)cc1 [Example 119, 7-(Azetidin-1-yl)-2-(4-fluorophenyl)imidazo[1,2-a]pyrimidine] | 22%
10 | FCOc1ccc(-c2cn3ccc(N4CCCC4)nc3n2)cc1 [Example 30, 2-[4-(Fluoromethoxy)phenyl]-7-pyrrolidin-1-ylimidazo[1,2-a]pyrimidine] | 9%
11 | CN(C)c1ccc(-c2cn3ccc(N(C)CCF)nc3n2)cc1 [Example 92, 2-[4-(Dimethylamino)phenyl]-N-(2-fluoroethyl)-N-methylimidazo[1,2-a]pyrimidin-7-amine] | 27%
12 | COc1cc(OC)cc(-c2cn3ccc(N4CCC4)nc3n2)c1 [Example 121, 7-(Azetidin-1-yl)-2-(3,5-dimethoxyphenyl)imidazo[1,2-a]pyrimidine] | 5%
13 | Cc1ccc(-c2cn3ccc(N4CCOCC4)nc3n2)cc1 [Example 42, 4-[2-(4-Methylphenyl)imidazo[1,2-a]pyrimidin-7-yl]morpholine] | 8%
14 | Cc1ccc(-c2cn3ccc(N4CCC(F)CC4)nc3n2)cc1 [Example 11, 7-(4-Fluoropiperidin-1-yl)-2-(4-methylphenyl)imidazo[1,2-a]pyrimidine] | 4%
15 | COc1ccc(-c2cn3ccc(N4CC[C@@H](F)C4)nc3n2)cc1 [Example 33, 7-[(3R)-3-Fluoropyrrolidin-1-yl]-2-(4-methoxyphenyl)imidazo[1,2-a]pyrimidine] | 25%
16 | CNc1ccn2cc(-c3ccc(O)cc3)nc2n1 [Example 122, 4-(7-(Methylamino)imidazo[1,2-a]pyrimidin-2-yl)phenol] | 32%
17 | CNc1ccn2cc(-c3ccc(CO)cc3)nc2n1 [Example 107, [4-[7-(Methylamino)imidazo[1,2-a]pyrimidin-2-yl]phenyl]methanol acetic acid adduct] | 23%

Row | Structure (SMILES) | % displacement of [3H]T808 (10 nM) at 10 nM
18 | FCOc1ccc(-c2cn3ccc(N4CCC4)nc3n2)cc1 [Example 97, 7-(Azetidin-1-yl)-2-[4-(fluoromethoxy)phenyl]imidazo[1,2-a]pyrimidine] | 30%
19 | FCOc1cccc(-c2cn3ccc(N4CCCC4)nc3n2)c1 [Example 16, 2-[3-(Fluoromethoxy)phenyl]-7-pyrrolidin-1-ylimidazo[1,2-a]pyrimidine] | 27%
20 | CN(C)c1ccn2cc(-c3ccc4c(c3)OCO4)nc2n1 [Example 37, 2-(1,3-Benzodioxol-5-yl)-N,N-dimethylimidazo[1,2-a]pyrimidin-7-amine] | 46%
21 | FC1CCN(c2ccn3cc(-c4cc5ccccc5o4)nc3n2)CC1 [Example 73, 2-(1-Benzofuran-2-yl)-7-(4-fluoropiperidin-1-yl)imidazo[1,2-a]pyrimidine] | 19%
22 | COc1ccc(-c2cn3ccc(N4CCCCC4)nc3n2)cc1OC [Example 53, 2-(3,4-Dimethoxyphenyl)-7-piperidin-1-ylimidazo[1,2-a]pyrimidine] | 6%
23 | COc1ccc(-c2cn3ccc(N(C)C)nc3n2)cc1 [Example 36, 2-(4-Methoxyphenyl)-N,N-dimethylimidazo[1,2-a]pyrimidin-7-amine] | 47%
24 | FCCC1CCN(c2ccn3cc(-c4ccc5c(c4)OCCO5)nc3n2)CC1 [Example 58, 2-(2,3-Dihydro-1,4-benzodioxin-6-yl)-7-[4-(2-fluoroethyl)piperidin-1-yl]imidazo[1,2-a]pyrimidine] | 18%
25 | CNc1ccn2cc(-c3cccc(O)c3)nc2n1 [Example 125, 3-(7-(Methylamino)imidazo[1,2-a]pyrimidin-2-yl)phenol] | 16%
26 | COc1ccc(-c2cn3ccc(N(C)CCOCCF)nc3n2)cc1 [Example 64, N-[2-(2-Fluoroethoxy)ethyl]-2-(4-methoxyphenyl)-N-methylimidazo[1,2-a]pyrimidin-7-amine] | 15%
27 | FCCC1CCN(c2ccn3cc(-c4ccccc4)nc3n2)CC1 [Example 54, 7-[4-(2-Fluoroethyl)piperidin-1-yl]-2-phenylimidazo[1,2-a]pyrimidine] | 14%
28 | CNc1ccn2cc(-c3ccc(OC)cc3)nc2n1 [Example 83, 2-(4-Methoxyphenyl)-N-methylimidazo[1,2-a]pyrimidin-7-amine] | 41%
29 | FCOc1cccc(-c2cn3ccc(N4CCC4)nc3n2)c1 [Example 118, 7-(Azetidin-1-yl)-2-(3-(fluoromethoxy)phenyl)imidazo[1,2-a]pyrimidine] | 23%
30 | CNc1ccn2cc(-c3ccc4c(c3)OCO4)nc2n1 [Example 84, 2-(1,3-Benzodioxol-5-yl)-N-methylimidazo[1,2-a]pyrimidin-7-amine] | 28%
31 | COc1ccc(-c2cn3ccc(N4CC5(CCC5)C4)nc3n2)cc1 [Example 65, 7-(2-Azaspiro[3.3]heptan-2-yl)-2-(4-methoxyphenyl)imidazo[1,2-a]pyrimidine] | 11%
32 | CN(C)c1ccc(-c2cn3ccc(NCCF)nc3n2)cc1 [Example 96, 2-[4-(Dimethylamino)phenyl]-N-(2-fluoroethyl)imidazo[1,2-a]pyrimidin-7-amine] | 34%
33 | CNc1ccn2cc(-c3cccc(Br)c3)nc2n1 [Example 99, 2-(3-Bromophenyl)-N-methylimidazo[1,2-a]pyrimidin-7-amine] | 27%

Same assay, conditions: compound 1 uM, radioligand [3H]T808 10 nM, 50 mM Tris pH 7.4, room temperature, 30 min

Row | Structure (SMILES) | % displacement of [3H]T808 (10 nM) at 1 uM
34 | COc1cccc(-c2cn3ccc(N4CCC(F)CC4)nc3n2)c1 [Example 5, 7-(4-Fluoropiperidin-1-yl)-2-(3-methoxyphenyl)imidazo[1,2-a]pyrimidine] | 74%
35 | FC1CCN(c2ccn3cc(-c4ccc5c(c4)OCCO5)nc3n2)CC1 [Example 8, 2-(2,3-Dihydro-1,4-benzodioxin-6-yl)-7-(4-fluoropiperidin-1-yl)imidazo[1,2-a]pyrimidine] | 72%
36 | Cc1ccc(-c2cn3ccc(N4CCC(F)CC4)nc3n2)cc1 [Example 11, 7-(4-Fluoropiperidin-1-yl)-2-(4-methylphenyl)imidazo[1,2-a]pyrimidine] | 81%
37 | FCOc1cccc(-c2cn3ccc(N4CCCC4)nc3n2)c1 [Example 16, 2-[3-(Fluoromethoxy)phenyl]-7-pyrrolidin-1-ylimidazo[1,2-a]pyrimidine] | 88%
